Laboratory results published in ChEMBL document CHEMBL1201861, “Genomics of Drug Sensitity in Cancer screening data, Wellcome Trust Sanger Institute”.

Key:
Assay in all cases: cells
KYSE-180 = assay type: functional, cell-based, Homo sapiens; settings: Homo sapiens, KYSE-180;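 further: growth inhibition of KYSE-180 cells, read out with a cell viability assay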
Description: SANGER: Inhibition of human KYSE-180 cell growth in a cell viability assay.

NCI-H727 = assay type: functional, cell-based, Homo sapiens; settings: Homo sapiens, NCI-H727;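 further: growth inhibition of human NCI-H727 cells, read out with a cell viability assay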
Description: SANGER: Inhibition of human NCI-H727 cell growth in a cell viability assay.

HuCCT-1 = assay type: functional, cell-based, Homo sapiens, HuCCT1; settings: Homo sapiens, HuCCT-1;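 further: growth inhibition of HuCCT-1 cells, read out by a cell viability assay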
Description: SANGER: Inhibition of human HuCCT1 cell growth in a cell viability assay.

SK-MEL-30 = assay type: functional, cell-based, Homo sapiens; settings: Homo sapiens, SK-MEL-30;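 further: growth inhibition of SK-MEL-30 cells, determined with a cell viability assay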
Description: SANGER: Inhibition of human SK-MEL-30 cell growth in a cell viability assay.

RT-112 = assay type: functional, cell-based, Homo sapiens; settings: Homo sapiens, RT-112
Description: SANGER: Inhibition of human RT-112 cell growth in a cell viability assay.

AGS = assay type: functional, cell-based, Homo sapiens; settings: Homo sapiens, AGS;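 further: growth inhibition of AGS cells, determined with a cell viability assay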
Description: SANGER: Inhibition of human AGS cell growth in a cell viability assay.

UMUC3 = assay type: functional, cell-based, Homo sapiens; settings: Homo sapiens, UMUC3;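 further: growth inhibition of human UM-UC-3 cells, read out with a cell viability assay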
Description: SANGER: Inhibition of human UM-UC-3 cell growth in a cell viability assay.

M059J = assay type: functional, cell-based, Homo sapiens; settings: Homo sapiens, M059J;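 further: growth inhibition of M059J cells, read out with a cell viability assay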
Description: SANGER: Inhibition of human M059J cell growth in a cell viability assay.

NCI-H2452 = assay type: functional, cell-based, Homo sapiens; settings: Homo sapiens, NCI-H2452;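 further: growth inhibition of NCI-H2452 cells, read out with a cell viability assay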
Description: SANGER: Inhibition of human NCI-H2452 cell growth in a cell viability assay.

HT1197 = assay type: functional, cell-based, Homo sapiens, HT-1197; settings: Homo sapiens, HT1197
Description: SANGER: Inhibition of human HT-1197 cell growth in a cell viability assay.

COLO-792 = assay type: functional, cell-based, Homo sapiens; settings: Homo sapiens, COLO-792
Description: SANGER: Inhibition of human COLO-792 cell growth in a cell viability assay.

H4 = assay type: functional, cell-based, Homo sapiens; settings: Homo sapiens, H4
Description: SANGER: Inhibition of human H4 cell growth in a cell viability assay.

COR-L105 = assay type: functional, cell-based, Homo sapiens; settings: Homo sapiens, COR-L105;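 further: cell growth inhibition determined with a viability assay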
Description: SANGER: Inhibition of human COR-L105 cell growth in a cell viability assay.

RD = assay type: functional, cell-based, Homo sapiens; settings: Homo sapiens, RD
Description: SANGER: Inhibition of human RD cell growth in a cell viability assay.

U-118-MG = assay type: functional, cell-based, Homo sapiens; settings: Homo sapiens, U-118-MG
Description: SANGER: Inhibition of human U-118-MG cell growth in a cell viability assay.

T84 = assay type: functional, cell-based, Homo sapiens; settings: Homo sapiens, T84;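 further: growth inhibition measured with a cell viability readout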
Description: SANGER: Inhibition of human T84 cell growth in a cell viability assay.

SW837 = assay type: functional, cell-based, Homo sapiens; settings: Homo sapiens, SW837;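 further: growth inhibition of SW837 cells, determined with a cell viability assay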
Description: SANGER: Inhibition of human SW837 cell growth in a cell viability assay.

CaR-1 = assay type: functional, cell-based, Homo sapiens; settings: Homo sapiens, CaR-1;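 further: growth inhibition of human CaR-1 cancer cells, read out with a cell viability assay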
Description: SANGER: Inhibition of human CaR-1 cell growth in a cell viability assay.

NCI-H2405 = assay type: functional, cell-based, Homo sapiens; settings: Homo sapiens, NCI-H2405;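 further: growth inhibition of the human cell line, read out with a cell viability assay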
Description: SANGER: Inhibition of human NCI-H2405 cell growth in a cell viability assay.

NCI-H358 = assay type: functional, cell-based, Homo sapiens; settings: Homo sapiens, NCI-H358;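 further: growth inhibition of NCI-H358 human cells, read out with a cell viability assay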
Description: SANGER: Inhibition of human NCI-H358 cell growth in a cell viability assay.

KYSE-510 = assay type: functional, cell-based, Homo sapiens; settings: Homo sapiens, KYSE-510;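 further: cell viability readout used to measure how strongly growth of the cell line is suppressed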
Description: SANGER: Inhibition of human KYSE-510 cell growth in a cell viability assay.

NCI-H1563 = assay type: functional, cell-based, Homo sapiens; settings: Homo sapiens, NCI-H1563;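 further: growth inhibition of human NCI-H1563 cells, read out with a cell viability assay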
Description: SANGER: Inhibition of human NCI-H1563 cell growth in a cell viability assay.

G-401 = assay type: functional, cell-based, Homo sapiens; settings: Homo sapiens, G-401
Description: SANGER: Inhibition of human G-401 cell growth in a cell viability assay.

OE33 = assay type: functional, cell-based, Homo sapiens; settings: Homo sapiens, OE33;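 further: growth inhibition of human OE33 cells, measured by a cell viability assay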
Description: SANGER: Inhibition of human OE33 cell growth in a cell viability assay.

SCC-4 = assay type: functional, cell-based, Homo sapiens; settings: Homo sapiens, SCC-4;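 further: growth inhibition of human SCC-4 cells, read out as cell viability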
Description: SANGER: Inhibition of human SCC-4 cell growth in a cell viability assay.

NCI-H441 = assay type: functional, cell-based, Homo sapiens; settings: Homo sapiens, NCI-H441;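 further: growth inhibition of NCI-H441 cells, read out with a cell viability assay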
Description: SANGER: Inhibition of human NCI-H441 cell growth in a cell viability assay.

RCM-1 = assay type: functional, cell-based, Homo sapiens; settings: Homo sapiens, RCM-1;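 further: growth inhibition of the RCM-1 line, determined with a cell viability readout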
Description: SANGER: Inhibition of human RCM-1 cell growth in a cell viability assay.

MeWo = assay type: functional, cell-based, Homo sapiens; settings: Homo sapiens, MeWo;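 further: growth inhibition of MeWo cells, determined by a cell viability readout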
Description: SANGER: Inhibition of human Mewo cell growth in a cell viability assay.

Ca9-22 = assay type: functional, cell-based, Homo sapiens; settings: Homo sapiens, Ca9-22;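 further: growth inhibition of Ca9-22 cells, read out with a cell viability assay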
Description: SANGER: Inhibition of human Ca9-22 cell growth in a cell viability assay.

GMS-10 = assay type: functional, cell-based, Homo sapiens; settings: Homo sapiens, GMS-10;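 further: growth inhibition of GMS-10 cells, read out as cell viability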
Description: SANGER: Inhibition of human GMS-10 cell growth in a cell viability assay.

D-542MG = assay type: functional, cell-based, Homo sapiens; settings: Homo sapiens, D-542MG
Description: SANGER: Inhibition of human D-542MG cell growth in a cell viability assay.

KYSE-150 cell line = assay type: functional, cell-based, Homo sapiens; settings: Homo sapiens, KYSE-150;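 further: growth inhibition of human KYSE-150 cells, read out with a cell viability assay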
Description: SANGER: Inhibition of human KYSE-150 cell growth in a cell viability assay.

ZR-75-30 = assay type: functional, cell-based, Homo sapiens; settings: Homo sapiens, ZR-75-30;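 further: growth inhibition of ZR-75-30 cells, measured with a cell viability readout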
Description: SANGER: Inhibition of human ZR-75-30 cell growth in a cell viability assay.

MDA-MB-415 = assay type: functional, cell-based, Homo sapiens; settings: Homo sapiens, MDA-MB-415
HT-1376 = assay type: functional, cell-based, Homo sapiens; settings: Homo sapiens, HT-1376
Description: SANGER: Inhibition of human HT-1376 cell growth in a cell viability assay.

NCI-H2030 = assay type: functional, cell-based, Homo sapiens; settings: Homo sapiens, NCI-H2030;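 further: growth inhibition of human NCI-H2030 cells, read out by a cell viability assay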
Description: SANGER: Inhibition of human NCI-H2030 cell growth in a cell viability assay.

Structure (SMILES) | IC50 (KYSE-180) [µM] | IC50 (NCI-H727) [µM] | IC50 (HuCCT-1) [µM] | IC50 (SK-MEL-30) [µM] | IC50 (RT-112) [µM] | IC50 (AGS) [µM] | IC50 (UMUC3) [µM] | IC50 (M059J) [µM] | IC50 (NCI-H2452) [µM] | IC50 (HT1197) [µM] | IC50 (COLO-792) [µM] | IC50 (H4) [µM] | IC50 (COR-L105) [µM] | IC50 (RD) [µM] | IC50 (U-118-MG) [µM] | IC50 (T84) [µM] | IC50 (SW837) [µM] | IC50 (CaR-1) [µM] | IC50 (NCI-H2405) [µM] | IC50 (NCI-H358) [µM] | other results
Cc1cn(-c2cc(NC(=O)c3ccc(C)c(Nc4nccc(-c5cccnc5)n4)c3)cc(C(F)(F)F)c2)cn1 [NILOTINIB] | > 2 | > 2 | > 2 | > 2 | > 2 | > 2 | > 2 | > 2 | > 2 | > 2 | > 2 | > 2 | > 2 | > 2 | > 2 | > 2 | > 2 | > 2 | > 2 | > 2 | IC50 (KYSE-510): > 2 µM; IC50 (NCI-H1563): > 2 µM; IC50 (G-401): > 2 µM; IC50 (OE33): > 2 µM; IC50 (SCC-4): > 2 µM; IC50 (NCI-H441): > 2 µM; IC50 (RCM-1): > 2 µM; IC50 (MeWo): > 2 µM; IC50 (Ca9-22): > 2 µM; IC50 (GMS-10): > 2 µM; IC50 (D-542MG): > 2 µM; IC50 (KYSE-150 cell line): > 2 µM; IC50 (ZR-75-30): > 2 µM; IC50 (MDA-MB-415): > 2 µM; IC50 (HT-1376): > 2 µM; IC50 (NCI-H2030): > 2 µM
CC(C)CCN1c2nc(Nc3cc(F)c(O)c(F)c3)ncc2N(C)C(=O)C1C (stereo not given) | > 5 | > 5 | > 5 | > 5 | > 5 | 2.34 | > 5 | 3.71 | > 5 | > 5 | > 5 | 2.48 | > 5 | 3.43 | > 5 | > 5 | > 5 | > 5 | > 5 | > 5 | IC50 (KYSE-510): 4.26 µM; IC50 (NCI-H1563): > 5 µM; IC50 (G-401): > 5 µM; IC50 (OE33): > 5 µM; IC50 (SCC-4): 3.09 µM; IC50 (NCI-H441): > 5 µM; IC50 (RCM-1): > 5 µM; IC50 (MeWo): > 5 µM; IC50 (Ca9-22): 2.66 µM; IC50 (GMS-10): 3.09 µM; IC50 (D-542MG): > 5 µM; IC50 (KYSE-150 cell line): 2.15 µM; IC50 (ZR-75-30): > 5 µM; IC50 (MDA-MB-415): > 5 µM; IC50 (HT-1376): 4.23 µM; IC50 (NCI-H2030): > 5 µM
CS(=O)(=O)c1ccc(C(=O)Nc2ccc(Cl)c(-c3ccccn3)c2)c(Cl)c1 [VISMODEGIB] | > 10 | > 10 | > 10 | > 10 | > 10 | > 10 | > 10 | > 10 | > 10 | > 10 | > 10 | > 10 | > 10 | > 10 | > 10 | > 10 | > 10 | > 10 | > 10 | > 10 | IC50 (KYSE-510): > 10 µM; IC50 (NCI-H1563): > 10 µM; IC50 (G-401): > 10 µM; IC50 (OE33): > 10 µM; IC50 (SCC-4): > 10 µM; IC50 (NCI-H441): > 10 µM; IC50 (RCM-1): > 10 µM; IC50 (MeWo): > 10 µM; IC50 (Ca9-22): > 10 µM; IC50 (GMS-10): > 10 µM; IC50 (D-542MG): 1.87 µM; IC50 (KYSE-150 cell line): > 10 µM; IC50 (ZR-75-30): > 10 µM; IC50 (MDA-MB-415): > 10 µM; IC50 (HT-1376): > 10 µM; IC50 (NCI-H2030): > 10 µM
CO[C@H]1C[C@@H]2CC[C@@H](C)[C@@](O)(O2)C(=O)C(=O)N2CCCC[C@H]2C(=O)O[C@H]([C@H](C)C[C@@H]2CC[C@@H](OC(=O)C(C)(CO)CO)[C@H](OC)C2)CC(=O)[C@H](C)/C=C(\C)[C@@H](O)[C@@H](OC)C(=O)[C@H](C)C[C@H](C)/C=C/C=C/C=C/1C [TEMSIROLIMUS] | > 0.2 | > 0.2 | > 0.2 | > 0.2 | 0.0471 | 0.0141 | 0.0692 | 0.118 | > 0.2 | > 0.2 | > 0.2 | 0.00107 | 0.0545 | 0.144 | 0.0167 | > 0.2 | > 0.2 | > 0.2 | > 0.2 | 0.131 | IC50 (KYSE-510): > 0.2 µM; IC50 (NCI-H1563): 0.106 µM; IC50 (G-401): 0.089 µM; IC50 (OE33): > 0.2 µM; IC50 (SCC-4): > 0.2 µM; IC50 (NCI-H441): > 0.2 µM; IC50 (RCM-1): > 0.2 µM; IC50 (MeWo): 0.0494 µM; IC50 (Ca9-22): 0.0966 µM; IC50 (GMS-10): > 0.2 µM; IC50 (D-542MG): 0.0779 µM; IC50 (KYSE-150 cell line): > 0.2 µM; IC50 (ZR-75-30): > 0.2 µM; IC50 (MDA-MB-415): 0.036 µM; IC50 (HT-1376): > 0.2 µM; IC50 (NCI-H2030): 0.0981 µM
Nc1cccc2c1CN(C1CCC(=O)NC1=O)C2=O (stereo not given) [LENALIDOMIDE] | > 5 | > 5 | > 5 | > 5 | > 5 | > 5 | > 5 | > 5 | > 5 | > 5 | > 5 | > 5 | > 5 | > 5 | > 5 | > 5 | > 5 | > 5 | > 5 | > 5 | IC50 (KYSE-510): > 5 µM; IC50 (NCI-H1563): > 5 µM; IC50 (G-401): > 5 µM; IC50 (OE33): > 5 µM; IC50 (SCC-4): > 5 µM; IC50 (NCI-H441): > 5 µM; IC50 (RCM-1): > 5 µM; IC50 (MeWo): > 5 µM; IC50 (Ca9-22): > 5 µM; IC50 (GMS-10): > 5 µM; IC50 (D-542MG): > 5 µM; IC50 (KYSE-150 cell line): > 5 µM; IC50 (ZR-75-30): > 5 µM; IC50 (MDA-MB-415): > 5 µM; IC50 (HT-1376): > 5 µM; IC50 (NCI-H2030): > 5 µM
